Counter-ions that a name gives are not always drawn.
Target: T1, HiBiT tagged PARP14 (Homo sapiens, UniProt Q460N5)
T1 construct: engineered to contain a HiBiT tag on both alleles of the PARP14 gene; endogenous in cells; host or cells: Jurkat cells stably transfected with LgBiT (Promega), PARP14 locus edited by CRISPR/Cas9
Experiment: HiBiT assay for the degradation of PARP14 (HiBiT tagged PARP14 in LgBiT expressing Jurkat cells, 2 or 24 hours)
Type: cell-based
Conditions: Assay B (Example B): HiBiT tagged PARP14 degradation in LgBiT expressing Jurkat cells, read-out: DC50
Procedure: Jurkat cells stably transfected with LgBiT (Promega) were engineered to contain a HiBiT tag on both alleles of the PARP14 gene (Genbank Accession Number: NM_017554) via CRISPR/Cas9 editing. The HiBiT tag is an 11 amino acid tag created by Promega that associates with LgBiT protein to form the NanoLuc® tag on the C-terminus of PARP14. Clones were isolated and confirmed for the HiBiT tag via Sanger sequencing.
Degradation of PARP14 protein was assessed by measuring the luminescence of the HiBiT tag associating with the LgBiT protein as a proxy for the PARP14 protein.
Jurkat cells were diluted to 250,000 cells per mL and then added to assay plate (Corning 3574) using a Multidrop (Thermo Fisher) to add 20 μL per well of the 384 well plate, resulting in 5,000 cells per well. 20 nL of a dose response curve diluted in DMSO of each test compound was added to the cell plate using a Mosquito (TTP Labtech) and the plate was incubated at 37° C. for 2 or 24 hours. Assay plate was brought to room temperature then 5 μL per well of Live Cell Substrate (Promega) was added to the plate. Luminescence was measured on an Envision (Perkin Elmer).
The average DMSO was calculated from 32 wells containing 0.1% DMSO only in columns 12 and 24 of the assay plate. The % of DMSO values were calculated as described below: […]
The % of DMSO values were plotted as a function of compound concentration and the following 4-parameter fit was applied to derive the DC50 values:
where top, bottom, and Hill Coefficient are allowed to float. Y is the % of DMSO and X is the compound concentration.
DC50 data for the Example compounds is provided below in Table 2 (“+” is ≤0.03 μM; “++” is ≥0.03 μM).

T1 sequence (Q460N5 whole entry): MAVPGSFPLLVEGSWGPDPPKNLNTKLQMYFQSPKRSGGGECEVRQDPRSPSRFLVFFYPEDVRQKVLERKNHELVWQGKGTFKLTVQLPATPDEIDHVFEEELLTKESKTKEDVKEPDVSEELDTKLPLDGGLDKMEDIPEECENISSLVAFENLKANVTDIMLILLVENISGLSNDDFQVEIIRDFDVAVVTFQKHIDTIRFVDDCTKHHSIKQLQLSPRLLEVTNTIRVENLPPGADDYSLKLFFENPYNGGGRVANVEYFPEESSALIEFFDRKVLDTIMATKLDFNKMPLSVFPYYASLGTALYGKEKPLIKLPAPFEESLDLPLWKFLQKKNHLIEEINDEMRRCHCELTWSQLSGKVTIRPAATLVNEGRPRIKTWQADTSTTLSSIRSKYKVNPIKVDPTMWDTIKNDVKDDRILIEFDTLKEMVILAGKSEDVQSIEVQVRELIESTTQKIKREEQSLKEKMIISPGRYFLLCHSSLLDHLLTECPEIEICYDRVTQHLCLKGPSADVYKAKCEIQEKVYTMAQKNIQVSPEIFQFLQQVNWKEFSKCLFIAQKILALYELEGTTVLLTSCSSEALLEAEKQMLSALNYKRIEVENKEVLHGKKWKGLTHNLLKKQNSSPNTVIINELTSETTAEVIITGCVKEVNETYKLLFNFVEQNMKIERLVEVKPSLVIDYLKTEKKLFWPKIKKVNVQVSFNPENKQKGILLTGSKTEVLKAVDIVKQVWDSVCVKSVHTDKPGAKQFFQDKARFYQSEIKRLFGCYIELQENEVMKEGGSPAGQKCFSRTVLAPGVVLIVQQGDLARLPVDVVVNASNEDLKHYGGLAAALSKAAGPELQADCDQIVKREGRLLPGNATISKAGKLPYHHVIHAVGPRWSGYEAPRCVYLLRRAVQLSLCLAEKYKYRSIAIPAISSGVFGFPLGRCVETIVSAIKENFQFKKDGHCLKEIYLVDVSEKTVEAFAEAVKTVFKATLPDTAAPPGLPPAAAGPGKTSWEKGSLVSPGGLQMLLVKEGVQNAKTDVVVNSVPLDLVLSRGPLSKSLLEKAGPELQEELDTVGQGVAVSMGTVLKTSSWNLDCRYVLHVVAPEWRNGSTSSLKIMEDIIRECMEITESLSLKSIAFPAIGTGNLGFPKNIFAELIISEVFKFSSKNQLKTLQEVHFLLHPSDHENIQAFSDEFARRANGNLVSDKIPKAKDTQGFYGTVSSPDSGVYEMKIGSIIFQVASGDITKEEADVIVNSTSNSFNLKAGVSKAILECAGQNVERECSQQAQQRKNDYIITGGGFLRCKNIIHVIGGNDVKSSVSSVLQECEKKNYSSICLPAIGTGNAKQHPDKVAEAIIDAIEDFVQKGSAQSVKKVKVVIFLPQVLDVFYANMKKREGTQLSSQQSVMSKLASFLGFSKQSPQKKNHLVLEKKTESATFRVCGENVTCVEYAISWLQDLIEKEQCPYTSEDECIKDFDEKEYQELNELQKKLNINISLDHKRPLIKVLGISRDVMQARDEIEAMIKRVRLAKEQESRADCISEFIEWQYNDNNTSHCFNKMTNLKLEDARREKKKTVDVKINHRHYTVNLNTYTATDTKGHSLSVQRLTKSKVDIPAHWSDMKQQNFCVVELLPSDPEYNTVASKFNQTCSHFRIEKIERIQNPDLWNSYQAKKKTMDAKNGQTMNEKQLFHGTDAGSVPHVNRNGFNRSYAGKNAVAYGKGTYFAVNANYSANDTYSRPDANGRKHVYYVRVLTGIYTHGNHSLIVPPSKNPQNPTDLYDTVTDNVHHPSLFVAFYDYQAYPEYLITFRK

| SMILES | DC50 [nM] |
| --- | --- |
| O=C1CCC(Nc2ccc(N3CCC(N4CCC(COc5cc(F)c6c(=O)[nH]c(CCC7CCOCC7)nc6c5)CC4)CC3)c(F)c2)C(=O)N1 (single isomer, unassigned) [Example 117b, 3-((3-fluoro-4-(4-(((5-fluoro-4-oxo-2-(2-(tetrahydro-2H-pyran-4-yl)ethyl)-3,4-dihydroquinazolin-7-yl)oxy)methyl)-[1,4′-bipiperidin]-11′-yl)phenyl)amino)piperidine-2,6-dione] | < 30 |
| O=C1CCC(Nc2ccc(N3CCC(N4CC(N5CCC(COc6cc(F)c7c(=O)[nH]c(COC8CCOCC8)nc7c6)CC5)C4)CC3)c(F)c2)C(=O)N1 (single isomer, unassigned) [Example 136a, 3-((3-fluoro-4-(4-(3-(4-(((5-fluoro-4-oxo-2-(((tetrahydro-2H-pyran-4-yl)oxy)methyl)-3,4-dihydroquinazolin-7-yl)oxy)methyl)piperidin-1-yl)azetidin-1-yl)piperidin-1-yl)phenyl)amino)piperidine-2,6-dione] | < 30 |
| O=C1CCC(Nc2ccc(N3CCC(N4CC(N5CCC(COc6cc(F)c7c(=O)[nH]c(COC8CCOCC8)nc7c6)CC5)C4)CC3)c(F)c2)C(=O)N1 (single isomer, unassigned) [Example 136b, 3-((3-fluoro-4-(4-(3-(4-(((5-fluoro-4-oxo-2-(((tetrahydro-2H-pyran-4-yl)oxy)methyl)-3,4-dihydroquinazolin-7-yl)oxy)methyl)piperidin-1-yl)azetidin-1-yl)piperidin-1-yl)phenyl)amino)piperidine-2,6-dione] | < 30 |
| O=C1CCC(Nc2ccc(N3CCN(CCN4CCC(COc5cc(F)c6c(=O)[nH]c(CCC7CCOCC7)nc6c5)CC4)CC3)c(F)c2)C(=O)N1 (stereo not drawn) [Example 100, 3-((3-fluoro-4-(4-(2-(4-(((5-fluoro-4-oxo-2-(2-(tetrahydro-2H-pyran-4-yl)ethyl)-3,4-dihydroquinazolin-7-yl)oxy)methyl)piperidin-1-yl)ethyl)piperazin-1-yl)phenyl)amino)piperidine-2,6-dione] | < 30 |
| O=C1CCC(Nc2ccc(N3CCN(CCN4CCC(COc5cc(F)c6c(=O)[nH]c(CC7CC7)nc6c5)CC4)CC3)c(F)c2)C(=O)N1 (stereo not drawn) [Example 105, 3-((4-(4-(2-(4-(((2-(cyclopropylmethyl)-5-fluoro-4-oxo-3,4-dihydroquinazolin-7-yl)oxy)methyl)piperidin-1-yl)ethyl)piperazin-1-yl)-3-fluorophenyl)amino)piperidine-2,6-dione formate] | < 30 |
| O=C1CCC(Nc2ccc(N3CCN(CCN4CCC(COc5cc(F)c6c(=O)[nH]c(CC7CCC7)nc6c5)CC4)CC3)c(F)c2)C(=O)N1 (stereo not drawn) [Example 106, 3-((4-(4-(2-(4-(((2-(cyclobutylmethyl)-5-fluoro-4-oxo-3,4-dihydroquinazolin-7-yl)oxy)methyl)piperidin-1-yl)ethyl)piperazin-1-yl)-3-fluorophenyl)amino)piperidine-2,6-dione formate] | < 30 |

More lines, now with the values ahead:

| DC50 [nM] | SMILES |
| --- | --- |
| < 30 | Cn1c(=O)n(C2CCC(=O)NC2=O)c2ccc(N3CCN(CCN4CCC(COc5cc(F)c6c(=O)[nH]c(CSC7CCOCC7)nc6c5)CC4)CC3)cc21 (stereo not drawn) [Example 91, 3-(5-(4-(2-(4-(((5-fluoro-4-oxo-2-(((tetrahydro-2H-pyran-4-yl)thio)methyl)-3,4-dihydroquinazolin-7-yl)oxy)methyl)piperidin-1-yl)ethyl)piperazin-1-yl)-3-methyl-2-oxo-2,3-dihydro-1H-benzo[d]imidazol-1-yl)piperidine-2,6-dione] |
| < 30 | O=C1CCC(Nc2ccc3c(c2)CN(CCN2CCC(COc4cc(F)c5c(=O)[nH]c(CSC6CCOCC6)nc5c4)CC2)C3)C(=O)N1 (stereo not drawn) [Example 92, 3-((2-(2-(4-(((5-fluoro-4-oxo-2-(((tetrahydro-2H-pyran-4-yl)thio)methyl)-3,4-dihydroquinazolin-7-yl)oxy)methyl)piperidin-1-yl)ethyl)isoindolin-5-yl)amino)piperidine-2,6-dione] |
| < 30 | O=C1CCC(NC(=O)c2ccc(N3CCN(CCN4CCC(COc5cc(F)c6c(=O)[nH]c(CSC7CCOCC7)nc6c5)CC4)CC3)cc2F)C(=O)N1 (stereo not drawn) [Example 93, N-(2,6-dioxopiperidin-3-yl)-2-fluoro-4-(4-(2-(4-(((5-fluoro-4-oxo-2-(((tetrahydro-2H-pyran-4-yl)thio)methyl)-3,4-dihydroquinazolin-7-yl)oxy)methyl)piperidin-1-yl)ethyl)piperazin-1-yl)benzamide] |
| < 30 | O=C1CCC(Nc2ccc(N3CCN(CCN4CCC(COc5cc(F)c6c(=O)[nH]c(CSC7CCOCC7)nc6c5)CC4)CC3)cc2F)C(=O)N1 (stereo not drawn) [Example 97, 3-((2-fluoro-4-(4-(2-(4-(((5-fluoro-4-oxo-2-(((tetrahydro-2H-pyran-4-yl)thio)methyl)-3,4-dihydroquinazolin-7-yl)oxy)methyl)piperidin-1-yl)ethyl)piperazin-1-yl)phenyl)amino)piperidine-2,6-dione] |
| < 30 | O=C1CCC(Nc2cc(F)c(N3CCN(CCN4CCC(COc5cc(F)c6c(=O)[nH]c(CSC7CCOCC7)nc6c5)CC4)CC3)c(F)c2)C(=O)N1 (stereo not drawn) [Example 98, 3-((3,5-difluoro-4-(4-(2-(4-(((5-fluoro-4-oxo-2-(((tetrahydro-2H-pyran-4-yl)thio)methyl)-3,4-dihydroquinazolin-7-yl)oxy)methyl)piperidin-1-yl)ethyl)piperazin-1-yl)phenyl)amino)piperidine-2,6-dione formate] |
| < 30 | Cn1nc(N2CCC(=O)NC2=O)c2cccc(N3CCN(CCN4CCC(COc5cc(F)c6c(=O)[nH]c(CSC7CCOCC7)nc6c5)CC4)CC3)c21 [Example 101, 1-(7-(4-(2-(4-(((5-fluoro-4-oxo-2-(((tetrahydro-2H-pyran-4-yl)thio)methyl)-3,4-dihydroquinazolin-7-yl)oxy)methyl)piperidin-1-yl)ethyl)piperazin-1-yl)-1-methyl-1H-indazol-3-yl)dihydropyrimidine-2,4(1H,3H)-dione] |
| < 30 | Cn1nc(C2CCC(=O)NC2=O)c2ccc(N3CCN(CCN4CCC(COc5cc(F)c6c(=O)[nH]c(CSC7CCOCC7)nc6c5)CC4)CC3)cc21 (stereo not drawn) [Example 102, 3-(6-(4-(2-(4-(((5-Fluoro-4-oxo-2-(((tetrahydro-2H-pyran-4-yl)thio)methyl)-3,4-dihydroquinazolin-7-yl)oxy)methyl)piperidin-1-yl)ethyl)piperazin-1-yl)-1-methyl-1H-indazol-3-yl)piperidine-2,6-dione] |
| < 30 | O=C1CCC(N2C(=O)c3cccc4c(N5CCN(CCN6CCC(COc7cc(F)c8c(=O)[nH]c(CSC9CCOCC9)nc8c7)CC6)CC5)ccc2c34)C(=O)N1 (stereo not drawn) [Example 103, 3-(6-(4-(2-(4-(((5-fluoro-4-oxo-2-(((tetrahydro-2H-pyran-4-yl)thio)methyl)-3,4-dihydroquinazolin-7-yl)oxy)methyl)piperidin-1-yl)ethyl)piperazin-1-yl)-2-oxobenzo[cd]indol-1(2H)-yl)piperidine-2,6-dione] |
| < 30 | O=C1CCC(Nc2ccc(F)c(N3CCN(CCN4CCC(COc5cc(F)c6c(=O)[nH]c(CSC7CCOCC7)nc6c5)CC4)CC3)c2)C(=O)N1 (stereo not drawn) [Example 104, 3-((4-fluoro-3-(4-(2-(4-(((5-fluoro-4-oxo-2-(((tetrahydro-2H-pyran-4-yl)thio)methyl)-3,4-dihydroquinazolin-7-yl)oxy)methyl)piperidin-1-yl)ethyl)piperazin-1-yl)phenyl)amino)piperidine-2,6-dione] |

Reference: US20240101540A1, “TARGETED PROTEIN DEGRADATION OF PARP14 FOR USE IN THERAPY” (Ribon Therapeutics, Inc., priority 2022, published 2024)
